From the NIST ThermoML archive (doi:10.1016/j.fluid.2011.09.010)
± gives the expanded uncertainty stated by the source.

Assay: activity coefficient (dimensionless); of the first substance listed, at infinite dilution; xn = mol fraction of the nth substance listed
Conditions: 101.3 kPa, Liquid, Differential ebulliometry, x1 = 0

Row | SMILES | activity coefficient (373.15 K) | activity coefficient (393.15 K) | activity coefficient (333.15 K) | activity coefficient (348.15 K) | activity coefficient (353.15 K)
1 | C1CCCCC1 [cyclohexane] + NC1CCCCC1 | 1.24 ± 0.15 | 1.18 ± 0.14 | – | – | –
2 | NC1CCCCC1 [cyclohexylamine] + C1CCCCC1 | – | – | 1.77 ± 0.21 | 1.49 ± 0.18 | –
3 | NC1CCCCC1 [cyclohexylamine] + CC1CCCCC1 | 1.64 ± 0.2 | 1.48 ± 0.18 | – | – | 1.87 ± 0.22

The remaining lines, values ahead:

Row | activity coefficient (373.15 K) | activity coefficient (393.15 K) | activity coefficient (333.15 K) | activity coefficient (348.15 K) | activity coefficient (353.15 K) | SMILES
4 | 1.45 ± 0.17 | 1.36 ± 0.16 | – | – | 1.52 ± 0.18 | NC1CCCCC1 [cyclohexylamine] + CCC1CCCCC1
5 | 1.45 ± 0.17 | 1.42 ± 0.17 | – | – | 1.57 ± 0.19 | CCC1CCCCC1 [ethylcyclohexane] + NC1CCCCC1
6 | 1.25 ± 0.15 | – | 1.19 ± 0.14 | – | 1.26 ± 0.15 | CC1CCCCC1 [methylcyclohexane] + NC1CCCCC1
